Assay: Measurement of enzyme substrate degradation (100° C. for 15 minutes) by fluorescence
Type: physicochemical
Conditions: no spores, read at 60° C.
Experimental: Luria-Bertani (LB) broth was prepared by dissolving tryptone (10 g/L), yeast extract (5 g/L), and NaCl (5 g/L) in deionized water. In the examples, 6′-fluoro-4′-methylumbelliferyl α-D-glucopyranoside (0.3 mg/mL) or 5′-fluoro-4′-methylumbelliferyl α-D-glucopyranoside (0.3 mg/mL) was added to the broth. In the comparative examples, 4′-methylumbelliferyl α-D-glucopyranoside (MUG) (0.3 mg/mL) or 6′,8′-Difluoro-4′-methylumbelliferyl α-D-glucopyranoside (0.3 mg/mL) was added to the broth. The pH of the broth was adjusted to either pH 6, pH 7, pH 8, or pH 9 using 0.1 N hydrochloric acid or 1N sodium hydroxide solutions. The broth was passed through a 0.22 micron filter prior to use.
(§1) An 800-microliter sample of LB broth (pH 6) containing 6′-fluoro-4′-methylumbelliferyl α-D-glucopyranoside (0.3 mg/mL) (enzyme substrate of Example 1) was added to a 1.5 mL microcentrifuge tube and the capped tube was placed in a heating block at 100° C. for 15 minutes. A metal block was placed on top of the tube to keep the cap sealed during heating. The sample was cooled to ambient temperature and then added to two wells (100 microliters per well) of a black 96-well microtiter plate with optically clear, flat bottom wells (NUNC #165301, Thermo Fisher Scientific). The top of the plate was covered with an optically clear sealing film (product #4311971, Applied Biosystems Corporation). The plate was warmed at 60° C. and shaken in a linear direction. Fluorescence readings (360 nm excitation/450 nm emission at 50% gain) were taken from the bottom of the plate. A reading was taken at an initial time point of 10 seconds and then at +1 minute intervals thereafter. A Synergy Neo2 fluorescence plate reader (BioTek Company) was used. In Table 5, the mean fluorescence values detected (RFU) at times of 10 seconds, +5 minutes, +10 minutes, and +30 minutes are reported.
as §1, with “7)” for “6)”, “6,” for “5,”
as §1, with “8)” for “6)”, “A Synergy Neo2 fluorescence plate reader (BioTek Company) was used. In Table 5, the mean fluorescence values detected (RFU) at times of 10 seconds, +5 minutes, +10 minutes, and +30 minutes are reported.” left out

SMILES | MEASURED FLUORESCENCE, RFU 10 sec (pH 6 LB broth) | MEASURED FLUORESCENCE, RFU +5 min (pH 6 LB broth) | MEASURED FLUORESCENCE, RFU +10 min (pH 6 LB broth) | MEASURED FLUORESCENCE, RFU +30 min (pH 6 LB broth) | MEASURED FLUORESCENCE, RFU 10 sec (pH 7 LB broth) | MEASURED FLUORESCENCE, RFU +5 min (pH 7 LB broth) | MEASURED FLUORESCENCE, RFU +10 min (pH 7 LB broth) | MEASURED FLUORESCENCE, RFU +30 min (pH 7 LB broth) | MEASURED FLUORESCENCE, RFU 10 sec (pH 8 LB broth) | MEASURED FLUORESCENCE, RFU +5 min (pH 8 LB broth) | MEASURED FLUORESCENCE, RFU +10 min (pH 8 LB broth) | MEASURED FLUORESCENCE, RFU +30 min (pH 8 LB broth) | MEASURED FLUORESCENCE, RFU 10 sec (pH 9 LB broth) | MEASURED FLUORESCENCE, RFU +5 min (pH 9 LB broth) | MEASURED FLUORESCENCE, RFU +10 min (pH 9 LB broth) | MEASURED FLUORESCENCE, RFU +30 min (pH 9 LB broth)
Cc1cc(=O)oc2cc(O[C@H]3O[C@H](CO)[C@@H](O)[C@H](O)[C@H]3O)cc(F)c12 [Example 2, 5′-Fluoro-4′-methylumbelliferyl α-D-glucopyranoside] | 933 RFU | 852 RFU | 805 RFU | 758 RFU | 831 RFU | 777 RFU | 733 RFU | 673 RFU | 748 RFU | 705 RFU | 658 RFU | 579 RFU | 675 RFU | 625 RFU | 584 RFU | 530 RFU
Cc1cc(=O)oc2c(F)c(O[C@H]3O[C@H](CO)[C@@H](O)[C@H](O)[C@H]3O)c(F)cc12 [Comparative Example A, 6′,8′-Difluoro-4′-methylumbelliferyl α-D-glucopyranoside] | 10,605 RFU | 10,851 RFU | 10,748 RFU | 10,663 RFU | 12986 RFU | 13409 RFU | 13403 RFU | 13283 RFU | 14015 RFU | 14483 RFU | 14494 RFU | 14331 RFU | 18584 RFU | 19052 RFU | 18990 RFU | 18683 RFU
Cc1cc(=O)oc2cc(O[C@H]3O[C@H](CO)[C@@H](O)[C@H](O)[C@H]3O)c(F)cc12 [Example 1, 6′-Fluoro-4′-methylumbelliferyl α-D-glucopyranoside] | 1108 RFU | 1096 RFU | 1040 RFU | 948 RFU | 1209 RFU | 1183 RFU | 1130 RFU | 1037 RFU | 1145 RFU | 1130 RFU | 1092 RFU | 1026 RFU | 1449 RFU | 1437 RFU | 1388 RFU | 1330 RFU
Cc1cc(=O)oc2cc(O[C@H]3O[C@H](CO)[C@@H](O)[C@H](O)[C@H]3O)ccc12 [MUG, 4′-methylumbelliferyl-α-D-glucopyranoside] | 967 RFU | 909 RFU | 852 RFU | 782 RFU | 823 RFU | 790 RFU | 745 RFU | 670 RFU | 714 RFU | 685 RFU | 643 RFU | 567 RFU | 654 RFU | 622 RFU | 575 RFU | 500 RFU

— US12123048B2, “Fluorinated 4′-alkylumbelliferyl a-D-glucopyranosides, biological sterilization indicators including the same and methods of using the same” (3M INNOVATIVE PROPERTIES COMPANY, priority 2018, dated 2024)
